In test [1] the target is Carbonic anhydrase 1 (Homo sapiens) (UniProt P00915). The test is described as follows: Activation of human recombinant CA1 by stopped flow CO2 hydration assay.
Test [2] concerns the target Carbonic anhydrase 2 (Homo sapiens) (UniProt P00918). The test is described as follows: Activation of human recombinant CA2 by stopped flow CO2 hydration assay.
Test [3] deals with Carbonic anhydrase 9 (Homo sapiens) (UniProt Q16790). The test is described as follows: Activation of human recombinant CA9 catalytic domain by stopped flow CO2 hydration assay.

Sequence of Carbonic anhydrase 1 (Homo sapiens) (P00915 2-261 limits assumed): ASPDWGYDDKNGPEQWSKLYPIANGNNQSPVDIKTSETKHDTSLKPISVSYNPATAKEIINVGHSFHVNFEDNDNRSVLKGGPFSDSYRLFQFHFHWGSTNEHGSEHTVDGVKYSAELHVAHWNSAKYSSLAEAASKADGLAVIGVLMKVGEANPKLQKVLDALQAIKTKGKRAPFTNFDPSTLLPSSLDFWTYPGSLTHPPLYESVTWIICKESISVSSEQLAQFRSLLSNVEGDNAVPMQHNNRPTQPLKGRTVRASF

Regarding `N[C@@H](Cc1c[nH]cn1)C(=O)NNS(=O)(=O)c1c(F)c(F)c(F)c(F)c1F`, the KA in test [1] was 42.5 µM; in test [2], 50.2 µM; in test [3] it was 30.2 µM.
As for `CC(C)(C)c1ccc(S(=O)(=O)NNC(=O)[C@@H](N)Cc2c[nH]cn2)cc1`, the KA in test [1] was determined as 78.9 µM; in test [2], 45.2 µM; in test [3] it was 29.8 µM.
As for `COc1ccc(S(=O)(=O)NNC(=O)[C@@H](N)Cc2c[nH]cn2)cc1`, the values for the KA in test [1], in test [2] and in test [3] were 44.8 µM, 38 µM and 27.4 µM, respectively.
In the same order, the values of `N[C@@H](Cc1c[nH]cn1)C(=O)NNS(=O)(=O)c1ccc([N+](=O)[O-])cc1` are 54.7 µM, 45.6 µM and 30.5 µM.
As for `N[C@@H](Cc1c[nH]cn1)C(=O)NNS(=O)(=O)c1ccc(-c2ccccc2)cc1`, the KA in test [1] is 33.1 µM; in test [2] it was 51.7 µM; in test [3], 28.5 µM.
`N#Cc1ccc(S(=O)(=O)NNC(=O)[C@@H](N)Cc2c[nH]cn2)cc1`: the KA worked out at 40.3 µM in test [1], 28.7 µM in test [2] and 17.8 µM in test [3].
Take `N[C@@H](Cc1c[nH]cn1)C(=O)NNS(=O)(=O)c1ccc(Br)cc1`: the KA in test [1] is 55.7 µM; in test [2], 19.6 µM; in test [3], 13.8 µM.
As for `N[C@@H](Cc1c[nH]cn1)C(=O)NNS(=O)(=O)c1ccc(Cl)cc1`, the KA was 70.1 µM in test [1], 6.53 µM in test [2] and 35.4 µM in test [3].
In the case of `N[C@@H](Cc1c[nH]cn1)C(=O)NNS(=O)(=O)c1ccc(F)cc1`, the KA in test [1] is 63.4 µM; in test [2] it was 44.8 µM; in test [3], 19.5 µM.
Consider `N[C@@H](Cc1c[nH]cn1)C(=O)NNS(=O)(=O)c1ccc(C(F)(F)F)cc1`, for which the values for the KA in test [1], in test [2] and in test [3] were 38.9 µM, 49.5 µM and 22.4 µM, respectively.
For `N[C@@H](Cc1c[nH]cn1)C(=O)NNS(=O)(=O)c1ccc2ccccc2c1`, the KA amounted to 63.8 µM in test [1], 18 µM in test [2] and 24.1 µM in test [3].
As to `Cc1ccc(S(=O)(=O)NNC(=O)[C@@H](N)Cc2c[nH]cn2)cc1`, the KA is 46.8 µM in test [1], 25 µM in test [2] and 18.1 µM in test [3].
The like results for `N[C@@H](Cc1c[nH]cn1)C(=O)NNS(=O)(=O)c1ccc(I)cc1` were, in that order, 76.3 µM, 0.21 µM and 14.1 µM.

These data come from ChEMBL document CHEMBL1138450, “Carbonic anhydrase activators: activation of human isozymes I, II and IX with phenylsulfonylhydrazido l-histidine derivatives” (Bioorg Med Chem Lett, 2009).
